Here are results for 5 compounds from US20230149418A1, “METHODS AND SYNERGIC COMPOSITIONS FOR TREATING VIRAL INFECTIONS” (HADASIT MEDICAL RESEARCH SERVICES AND DEVELOPMENT LTD., priority 2018, published 2023).

The subject of this assay is HCMV TB40/E strain. The assay can be described thus: Plaque reduction assay, HCMV TB40/E strain in human foreskin fibroblasts, single drugs and 2-drug combinations (Chou-Talalay). The note with it: for Dose of drug alone at Fa 0.75: Fa 0.75, drug alone; for Dose of drug alone at Fa 0.9: Fa 0.9, drug alone; for Dose of drug alone at Fa 0.95: Fa 0.95, drug alone; for Dose of drug alone at Fa 0.97: Fa 0.97, drug alone; for Dose of drug alone at Fa 0.05: Fa (fraction of virus affected) 0.05, drug alone. Type of assay: cell-based, human cytomegalovirus. On the procedure: The CMV strain used was TB40/E. The CMV strain was propagated and tittered in human foreskin fibroblasts (HFF) cells. Cell-free virus stocks and cell-associated clinical isolates were maintained at -70° C. Viral stocks were tittered by serial 10-fold dilution in 24-well tissue culture plates containing HFF monolayers overlaid with agarose-medium. After incubation for 7 to 14 days, plaques were enumerated, and virus titer was determined as plaque forming units (PFU) per milliliter (ml). Stocks of artemisone (10 mM), ganciclovir (10 mM), BDCRB (120 mM), brincidofovir (1 mM), maribavir (10 mM) and letermovir (10 mM) were prepared in DMSO or H2O.
Cell monolayers were inoculated in 24-well culture plates with 0.2 ml of virus suspension containing 60 to 100 PFU per well. After adsorption for 60 -120 min at 37° C., the inoculum was removed, and culture medium was replaced with agarose-medium overlay containing serial concentrations of the tested drug(s). Plates were incubated for 7-14 days at 37° C. in a 5% CO2 incubator. Plaques were then counted microscopically.
The effect of a combination of artemisone with each one of ganciclovir (HCMV DNA polymerase), BDCRB (HCMV terminase inhibitor), brincidofovir (HCMV DNA polymerase inhibitor), maribavir (HCMV UL97 kinase inhibitor) and letermovir (HCMV terminase inhibitor) was evaluated by the classical plaque reduction assay. The in vitro activity of each of the above mentioned antiviral compounds alone or in combination with artemisone was evaluated by the classical plaque reduction assay, using HCMV TB40/E strain in human foreskin fibroblasts cells. The concentration of each antiviral compound that reduced the plaque formation by 50% (EC50) was determined as previously described in Wolf DG et al., J Clin Invest. 1995;95:257-63. The individual EC50 values in human foreskin fibroblasts were as follows: artemisone EC50 - 1 µM; ganciclovir EC50 - 1 µM; maribavir EC50 - 1 µM; BDCRB EC50 - 0.5 µM; letermovir EC50 - 5 nM; brincidofovir EC50 -1 nM.
For the 2-drug combination studies, the EC50 value of each drug was used to determine an equipotent ratio between the two compounds (EC50 of drug 1 / EC50 of drug 2). Serial 2-fold dilutions of a mixture comprising artemisone and another antiviral compound at initial concentrations equivalent to 4-fold the equipotent ratio were added to duplicate wells of cells infected with HCMV. Overall, 5 different concentrations of the drug combinations were used: 4xEC50, 2xEC50, 1xEC50,0.5xEC50,0.25xEC50. The cell monolayers were inoculated in 24-well culture plates with 0.2 ml of virus suspension containing 60 to 100 plaque-forming unit (PFU) per well; the Multiplicity of infection (MOI) was 0.001-0.002 PFU/cell).
D1 and D2 are the doses of the two drugs, and Dx is a dose causing to x% effect (LD0.5 is EC50). Briefly, the software extrapolated a combination index (CI) representing the interaction between the two drugs at specified levels of virus inhibition (that is 50%, 75%, 90%, 95%) versus the percentages of the inhibition induced by each drug alone and in combination (equation 16 in Chou).
A weighted average CI (CIwt) was then calculated for each combination as (CI50+ 2×CI75+3×CI90+4×CI95)/10, to access the drug combinatory effects.
The dose reduction index (DRI) was then calculated as described in Chou. In general, the DRI measures the fold of dose reduction of each drug in the combination at a given effect level compared with the doses of each drug alone. For each one of the below tables: Fa - fraction of virus affected; doses are provided in µm.
Background: In a plaque reduction assay, fewer plaques than in the control indicate reduced infectivity or spread.

[1] abbreviates: Human betaherpesvirus 5, Fibroblast, drug alone, human foreskin fibroblasts, read-out: EC50 (concentration that reduced the plaque formation by 50%).
[2] abbreviates: Human betaherpesvirus 5, Fibroblast, Fa 0.5, drug alone, read-out: Dose of drug alone at Fa 0.5.

Like-named read-outs stand apart in the source and are kept apart here.

Consider `OC[C@H]1O[C@@H](n2c(Br)nc3cc(Cl)c(Cl)cc32)[C@H](O)[C@@H]1O` [BDCRB, 2-bromo-5,6-dichloro-1-beta-D-ribofuranosyl benzimidazole], for which the EC50 under setting [1] was 500 nM.
Turning to `Nc1ccn(C[C@@H](CO)OCP(=O)(O)O)c(=O)n1` [cidofovir], the “Dose of drug alone at Fa 0.75” value turned out to be 0.646 µm, the “Dose of drug alone at Fa 0.9” value is reported as 1.148 µm, the “Dose of drug alone at Fa 0.95” value was 1.698 µm and the “Dose of drug alone at Fa 0.97” value amounted to 2.242 µm. For the same compound, the “Dose of drug alone at Fa 0.05” value is reported as 0.07783 µm. Also, under setting [2], the EC50 was determined as 364 nM. Further, the “DRI (dose reduction index)” value (combination artemisone + cidofovir, Fa 0.05) is listed as 1.038. The “DRI (dose reduction index)” value (combination artemisone + cidofovir, Fa 0.5) was determined as 1.757. Also, under “combination artemisone + cidofovir, Fa 0.75”, the “DRI (dose reduction index)” value was found to be 2.139. Besides, for the setting “combination artemisone + cidofovir, Fa 0.9”, the “DRI (dose reduction index)” value came to 2.6. Moreover, the “DRI (dose reduction index)” value (combination artemisone + cidofovir, Fa 0.9, listed as CDV) came to 2.603. Besides, the “DRI (dose reduction index)” value (combination artemisone + cidofovir, Fa 0.95) turned out to be 2.975. Also, the “DRI (dose reduction index)” value (combination artemisone + cidofovir, Fa 0.97) was “up to 3.27”. Besides, the “DRI (dose reduction index)” value (combination artemisone + cidofovir, Fa 0.97, listed as CDV) amounted to 3.271.
In the case of `Nc1nc2c(ncn2COC(CO)CO)c(=O)[nH]1` [ganciclovir], the “Dose of drug alone at Fa 0.75” value stood at 1.113 µm, the “Dose of drug alone at Fa 0.9” value is reported as 2.12 µm, the “Dose of drug alone at Fa 0.95” value is recorded as 3.287 µm and the “Dose of drug alone at Fa 0.97” value was determined as 4.491 µm. Further, the “Dose of drug alone at Fa 0.05” value came out at 0.1039 µm. In addition, the “Dose of drug alone at Fa 0.9” value (listed as GCV) is given as 2.121 µm. Under setting [2], the EC50 is 584 nM. Besides, the EC50 under setting [1] is 1000 nM. Further, where the note is “combination artemisone + ganciclovir, Fa 0.05”, the “DRI (dose reduction index)” value is recorded as 1.342. Also, the “DRI (dose reduction index)” value (combination artemisone + ganciclovir, Fa 0.5) is 1.673. Moreover, the “DRI (dose reduction index)” value (combination artemisone + ganciclovir, Fa 0.75) is recorded as 1.817. Moreover, the “DRI (dose reduction index)” value (combination artemisone + ganciclovir, Fa 0.9, listed as GCV) came to 1.973. In addition, the “DRI (dose reduction index)” value (combination artemisone + ganciclovir, Fa 0.95) is on record as 2.09. For the same compound, the “DRI (dose reduction index)” value (combination artemisone + ganciclovir, Fa 0.95, listed as GCV) amounted to 2.086. Moreover, the “DRI (dose reduction index)” value (combination artemisone + ganciclovir, Fa 0.97) is listed as 2.171.
As for `COc1cccc(N2CCN(C3=Nc4c(F)cccc4[C@H](CC(=O)O)N3c3cc(C(F)(F)F)ccc3OC)CC2)c1` [letermovir], the “Dose of drug alone at Fa 0.75” value amounted to 0.00438 µm, the “Dose of drug alone at Fa 0.9” value turned out to be 0.00952 µm, the “Dose of drug alone at Fa 0.95” value is given as 0.01614 µm and the “Dose of drug alone at Fa 0.97” value is 0.02351 µm. Besides, the “Dose of drug alone at Fa 0.05” value amounted to 2.51E-4 µm. Also, under setting [2], the EC50 came to 2.01 nM. Moreover, the EC50 under setting [1] is 5 nM. Further, the “DRI (dose reduction index)” value (combination artemisone + letermovir, Fa 0.05) is reported as 0.5226. Besides, the “DRI (dose reduction index)” value (combination artemisone + letermovir, Fa 0.5) is reported as 1.044. Further, under “combination artemisone + letermovir, Fa 0.75”, the “DRI (dose reduction index)” value is given as 1.351. Besides, the “DRI (dose reduction index)” value (combination artemisone + letermovir, Fa 0.9) was 1.75. Further, under “combination artemisone + letermovir, Fa 0.9, listed as Let”, the “DRI (dose reduction index)” value was 1.749. Moreover, for the setting “combination artemisone + letermovir, Fa 0.95”, the “DRI (dose reduction index)” value was 2.084. Also, the “DRI (dose reduction index)” value (combination artemisone + letermovir, Fa 0.97) is listed as “up to 2.4”. For the same compound, the “DRI (dose reduction index)” value (combination artemisone + letermovir, Fa 0.97, listed as Let) amounted to 2.362.
As for brincidofovir, the “Dose of drug alone at Fa 0.75” value is given as 0.001 µm, the “Dose of drug alone at Fa 0.9” value came out at 0.002 µm, the “Dose of drug alone at Fa 0.95” value is listed as 0.002 µm and the “Dose of drug alone at Fa 0.97” value is 0.003 µm. Further, the “Dose of drug alone at Fa 0.05” value was 1.87E-4 µm. Besides, where the note is “Fa 0.5, drug alone, read-out: Dose of drug alone at Fa 0.5”, the EC50 is 0.649 nM. The “DRI (dose reduction index)” value (combination artemisone + brincidofovir, Fa 0.05) is on record as 1.43. Besides, the “DRI (dose reduction index)” value (combination artemisone + brincidofovir, Fa 0.5) is 1.48. In addition, the “DRI (dose reduction index)” value (combination artemisone + brincidofovir, Fa 0.75) stood at 1.5. The “DRI (dose reduction index)” value (combination artemisone + brincidofovir, Fa 0.9) is reported as “up to 1.5”. For the setting “combination artemisone + brincidofovir, Fa 0.9, listed as BCV”, the “DRI (dose reduction index)” value is given as 1.52. Also, the “DRI (dose reduction index)” value (combination artemisone + brincidofovir, Fa 0.95) is 1.53. In addition, the “DRI (dose reduction index)” value (combination artemisone + brincidofovir, Fa 0.97) was found to be 1.54. Under “drug alone, human foreskin fibroblasts, read-out: EC50 (concentration that reduced the plaque formation by 50%)”, the EC50 is 1 nM.
